Results on 4 compounds are retold here after patent US20190105260A1, “COMPOSITIONS AND METHODS TO PROMOTE WOUND HEALING” (The Regents of the University of California, priority 2016, published 2019).

Series [1] deals with bone marrow-derived macrophages (BMDMs), M2 polarization. The series is described as follows: In vitro macrophage polarization (RT-PCR, flow cytometry). It is filed as cell-based, mouse. Conditions: added to fluoxetine; 1 μM Ketanserin, 100 nM NAN-190; 24 hours. The protocol: Bone marrow described macrophages from wild-type C57/B6J mice were harvested and cultured under polarizing conditions towards M0 (no polarization; normal culture medium), M1 (using LPS and IFNγ) or M2 (using IL-4 and IL-13). […] M2 activation status was assessed using RT-PCR (normalized to HSP90) for CD206, Ym-1 and Arg-1. M1 activation status was assessed using TNFα (A, B). C: At day 7 of macrophage maturation, adherent bone marrow derived monocytes in culture were identified with macrophage markers (CD11b and F4/80) using flow cytometry. After 24 hours, CD206 expression was identified in treated group (C). Results were then quantified and reported (D). Data presented as average±SEM. ** p<0.01.
Wild type C57BL/6 male and female mice were used. Bone marrow-derived (BMD) cells were isolated from mouse femurs and tibias. ACK solution (Thermo Fisher catalog 50-983-220) was used for 5 minutes at 37° C. to lyse red blood cells. BMD macrophages (BMDMs) were matured with (20 ng/mL) M-CSF (R&D) for 7 days. On day 7, BMDM phenotype was confirmed with flow cytometry by CD11b and F4/80 markers (Biolegend). Following maturation, BMDMs were either polarized towards M1 lineage with 10 ng/ml LPS (Sigma Aldrich) and 100 ng/ml IFN-g (R&D) or M2 lineage with 20 ng/ml IL-4 (PeproTech) and IL-13 (R&D) in cRPMI (1×RPMI (Cellgro), 10% FBS, 1× sodium pyruvate (GIBCO), 1× penicillin/streptomycin (GIBCO) at 37° C. for 24 hours. Non-polarized BMDMs and M1-polarized BMDMs were used as experimental controls for polarization procedure. M2-polarized BMDMs were co-treated with either PBS or FLX and/or 100 nM NAN-190 or 1 μM Ketanserin. Cells were either collected after 4 hours by scraping and stored in buffer RLT (Qiagen) at −80° C. or were read with flow cytometry after 24 hours and data were appropriately compensated and analyzed by FlowJo.
RT-PCR was performed using PowerUp SYBR Green Master Mix (Thermo/Applied Biosystems). Data was analyzed using the ΔΔCt method and normalized using geometric mean of the housekeeping genes (GAPDH, Hsp90, 18S rRNA). Fold change is shown relative to control groups.
(Flow cytometry measures light scatter and fluorescence of single cells or particles in a stream.)

For series [2] the following is noted: cited from earlier work.
Series [3] has as its system Db/Db female mice, diabetic model of impaired wound healing. The series is described as follows: In vivo splinted full-thickness excisional wound model, re-epithelialization analysis. Also noted: species or system mouse. The settings on record: daily topical 0.2% fluoxetine or 0.01% timolol; day 12. The protocol:
Panel B: Histomorphometric analysis of wounds. Representative histology sections for each group were chosen. Following euthanasia of animals, wounds were excised, biopsied and bisected. Wound tissue was fixed in paraformaldehyde for 12-16 hours and then paraffin embedded. Serial 5 μm sections were obtained from the center of the wound and the section with the largest wound bed (as defined by distance between hair follicles) was stained with hemotoxylin and eosin. Images were taken using 10× objective on a Keyance microscope. Panels C-D: Re-epithelialization was determined on sections created as in panel B. Image J analysis software was utilized to divide the re-epithelialized tissue (distance from hair follicle to remaining wound) by the entire original wound surface (as defined as distance between hair follicles). Panel D provides the distribution of data depicted in Panel C. P values were derived using a 2-tailed t-test.
13 week-old Db/Db female mice underwent full-thickness excisional biopsies with 8 mm punch biopsies. Wounds were splinted to prevent contraction. At day 12, animals were sacrificed and wounds were harvested to assess re-epithelialization. Representative histology sections for each group were chosen. Following euthanasia of animals, wounds were excised, biopsied and bisected. Wound tissue was fixed in paraformaldehyde for 12-16 hours and then paraffin embedded. Serial […] sections were obtained from the center of the wound and the section with the largest wound bed (as defined by distance between subcutaneous fat tissue) was stained with hemotoxylin and eosin. Images were taken using 10× objective on a Keyance microscope. (A) Re-epithelialization was determined on sections created. Image J analysis software was utilized to divide the re-epithelialized tissue by the entire original wound surface. (B) Percent of wounds at different stages of re-epithelialization was quantified. Data represented as Mean±SEM. P values were derived using a 2-tailed t-test. N=5/group.
13 week-old Db/Db female mice underwent full-thickness excisional wounding with 8 mm punch biopsy tool. All wounds were splinted to prevent contraction. […] At day 11, animals were sacrificed and wounds were harvested to assess re-epithelialization. Representative histology sections for each group were chosen. Following euthanasia of animals, wounds were excised, biopsied and bisected. Wound tissue was fixed in paraformaldehyde for 12-16 hours and then paraffin embedded. Serial […] sections were obtained from the center of the wound and the section with the largest wound bed (as defined by distance between subcutaneous fat tissue) was stained with hemotoxylin and eosin. Images were taken using 10× objective on a Keyance microscope. Re-epithelialization was determined on sections created. Image J analysis software was utilized to divide the re-epithelialized tissue by the entire original wound surface. Data represented as Mean±SEM. N=5/group.
Diabetic status (blood glucose >300 mg/dl) was confirmed in female Db/Db mice at age 11 weeks. At age 13 weeks, mice underwent hair removal and synchronization of follicle cycling through depilation and shaving. Synchronization was confirmed based on lack of skin pigmentation in included mice. 1 day after synchronization, 13-week-old Db/Db female mice underwent full-thickness excisional wounding using a splinted model as described. Briefly, 8 mm punch biopsies were used to make full-thickness excisional wounds. […]

`O=C(c1ccc(F)cc1)C1CCN(CCn2c(=O)[nH]c3ccccc3c2=O)CC1` [Ketanserin]: in series [1], the “effect on fluoxetine-enhanced M2 polarization (CD206+ cells, flow cytometry)” value was “reversed”.
Still for that read-out and setting: the value for `COc1ccccc1N1CCN(CCCCN2C(=O)c3ccccc3C2=O)CC1` [NAN190] was “reversed”.
On to `CC(C)(C)NCC(O)COc1cccc2c1CC(O)C(O)C2` (stereo not shown) [Nadolol], for which the lipid solubility result in series [2] is on record as “low”.
Turning to `CC(C)(C)NC[C@H](O)COc1nsnc1N1CCOCC1` [timolol], the “re-epithelialization compared to PEG vehicle control” value in series [3] was “increased”.
